Patent publication US8178506B2, “Oligomeric compounds and compositions for use in modulation of small non-coding RNAs” (Regulus Therapeutics Inc., priority 2003, dated 2012)
In the oligonucleotide strings, read from the 5' end, every base follows the letter of its sugar. An asterisk marks phosphorothioate; unmarked linkages are phosphodiester. Other units and linkages are bracketed, terminal groups are in braces. A string of capitals states the bases alone. e = 2'-O-(2-methoxyethyl) (MOE); [5mC] = 5-methylcytosine; d = 2'-deoxy (DNA)

Tests used:
[1] = tested on: BJ cells; test: Cell cycle assay in BJ cells; type: cell-based, human; conditions: 200 nM, 48 hours, relative to untreated control
Experimental: BJ cells were routinely cultured in MEM high glucose with 2 mM L-glutamine and Earle's BSS adjusted to contain 1.5 g/L sodium bicarbonate and supplemented with 10% fetal bovine serum, 0.1 mM non-essential amino acids and 1.0 mM sodium pyruvate (all media and supplements from Invitrogen Life Technologies, Carlsbad, Calif.). B16-F10 cells were routinely cultured in DMEM high glucose (Invitrogen Life Technologies, Carlsbad, Calif.) supplemented with 10% fetal bovine serum (Invitrogen Life Technologies, Carlsbad, Calif.). T47D cells were cultured in DMEM High glucose media (Invitrogen Life Technologies, Carlsbad, Calif.) supplemented with 10% fetal bovine serum. […] Cells were plated on collagen-coated 24-well plates (Falcon-Primaria #3047, BD Biosciences, Bedford, Mass.) at approximately 50,000 cells per well and allowed to attach to wells overnight.
In further studies, additional cell lines were treated with oligomeric compounds targeted against miRNAs to assess the effects of each oligomeric compound on cell cycling. BJ, B16, T47D, and HeLa cells were cultured and transfected as described above. […] T47Dp53 cells are T47D cells that have been transfected with and selected for maintenance of a plasmid that expresses a wildtype copy of the p53 gene (for example, pCMV-p53; Clontech, Palo Alto, Calif.), using standard laboratory procedures. BJ cells were treated with 200 nM of each oligomeric compound, and T47D, T47Dp53, HeLa, and B16 cells were treated with 150 nM of each oligomeric compound. The human foreskin fibroblast BJ cell line represents a non-cancer cell line, while HeLa, T47D, T47Dp53 cells and the mouse melanoma cell line B16-F10 represent cancerous cell lines. For comparison, oligomeric compounds ISIS 183891 (SEQ ID NO: 847) and ISIS 285717 ([…]; herein incorporated as SEQ ID NO: 857), both targeting the kinesin-like 1/Eg5 mRNA, involved in cell cycling, were used as positive controls. The random-mer ISIS 29848 was used as a negative control. Additionally, the oligomeric compounds ISIS Number 25690 ([…]; herein incorporated as SEQ ID NO: 858) and ISIS Number 25691 ([…]; herein incorporated as SEQ ID NO: 859), targeted to nucleotides 3051-3070 and 3085-3104, respectively, of the mRNA encoding the Drosha RNase III (GenBank Accession NM_013235.2, incorporated herein as SEQ ID NO: 860) were also tested. ISIS Number 25690 and ISIS Number 25691 are 5-10-52′-MOE gapmer compounds, 20 nucleotides in length, with phosphorothioate internucleoside linkages throughout the oligomeric compound. All cytidine residues are 5-methylcytidines. Transfections were performed using the methods described herein. Cells were prepared for flow cytometry 48-hours after oligonucleotide treatment. Results of these studies are shown in Table 35, where data are expressed as percentage of cells in each phase relative to the untreated control cells in that phase.

[2] = tested on: T47Dp53 cells; test: Cell cycle assay in T47Dp53 cells; type: cell-based, human; conditions: 150 nM, 48 hours, relative to untreated control
[3] = tested on: mir-143 miRNA; test: Northern blot of mature mir-143 in kidney of ob/ob mice; type: in vivo, mouse; conditions: twice weekly at 25 mg/kg, saline = 100%
Experimental: In addition, Northern blot analyses were performed to quantitate the expression of mature mir-143 in kidney samples of ob/ob mice treated with oligomeric compounds of the present invention. The mir-143 specific DNA oligonucleotide probe (SEQ ID NO: 319) described above was used to detect expression levels of the mir-143 miRNA in ob/ob mice treated (twice weekly at 25 mg/kg) with ISIS Numbers 327901, the uniform 2′-MOE oligomeric compound, or ISIS Number 340927, the 5-10-7 gapmer compound, both targeted to mir-143, versus saline treated animals or animals treated with ISIS 342672 (SEQ ID NO: 789), a uniform 2′-MOE scrambled negative control oligomeric compound. Expression levels were normalized against the U6 RNA and the expression levels of saline treated animals were set at 100%. […] In kidney samples from mice treated with the gapmer oligomeric compound targeting mir-143, ISIS Number 340927, a 23% reduction in in vivo expression levels of the mature mir-143 miRNA was observed.

[4] = tested on: mir-15a miRNA; test: pGL3-mir-15a sensor luciferase assay in HeLa cells; type: cell-based, human; conditions: pGL3-mir-15a sensor-expressing HeLa cells
Excerpt: In order to assess the ability of miRNAs to bind predicted miRNA binding sites and regulate the expression of the luciferase reporter, in some embodiments, expression systems based on the pGL3-Control (Promega Corp., Madison Wis.) reporter vector and comprising either a mir-15a, mir-21, or a mir-23b miRNA binding site were developed and used in transient transfections of HeLa cells to determine whether the endogenous mir-15a, mir-21, or mir-23b miRNAs, respectively, could repress luciferase reporter gene expression.
The pGL3-mir-15a sensor plasmid was created by cloning the sequence ([…]; SEQ ID NO: 369), complementary to the mir-15a miRNA, into the Xba site of the pGL3-Control plasmid, placing the potential miRNA-binding site in the 3′UTR of the luciferase reporter. This reporter plasmid was used to transfect HeLa cells and it was observed that the endogenous mir-15a miRNA was able to inhibit luciferase expression from the pGL3-mir-15a sensor plasmid. Thus, to further evaluate the ability of the mir-15a miRNA to bind this target site encoded by the pGL3-mir-15a sensor plasmid, and to assess the ability of oligomeric compounds to interfere with mir-15a-mediated silencing, pGL3-mir-15a sensor-expressing HeLa cells were treated with varying concentrations (3-, 10- or 30 nM) of the following oligomeric compounds: ISIS Number 327951 (SEQ ID NO: 369) is a uniform 2′-MOE compound targeting the mature mir-15a-1 miRNA. ISIS Numbers 356213 (SEQ ID NO: 878), 356215 (SEQ ID NO: 879), 356216 (SEQ ID NO: 880), 356218 (SEQ ID NO: 881), 356221 (SEQ ID NO: 882), 356227 (SEQ ID NO: 883) and 356229 (SEQ ID NO: 884) are phosphorothioate, uniform 2′-MOE oligomeric compounds designed and synthesized to target the entire length of the mir-15a pri-miRNA molecule (described in detail in Example 28, below). […] The data presented in Table 42 are the average of three trials and are presented as percent untreated control (luciferase plasmid only, not treated with oligomeric compound) luciferase expression, normalized to pRL-CMV levels.

328759 (antisense eG*eA*eG*eG*eG*dA*dT*dT*dG*dT*dA*dT*dG*dA*dA*e[5mC]*eA*eT*e[5mC]*eT) [compound 328759]
% cells in cell cycle phase G1 [1]: 91% | % cells in cell cycle phase G2/M [1]: 141% | % cells in cell cycle phase S [1]: 117% | % cells in cell cycle phase aneuploid [1]: 160% | % cells in cell cycle phase subG1 [1]: 164% | % cells in cell cycle phase G1 [2]: 99% | % cells in cell cycle phase G2/M [2]: 108% | % cells in cell cycle phase S [2]: 93% | % cells in cell cycle phase aneuploid [2]: 109% | % cells in cell cycle phase subG1 [2]: 423%

327905 (antisense e[5mC]*eA*eG*eA*e[5mC]*eT*e[5mC]*e[5mC]*eG*eG*eT*eG*eG*eA*eA*eT*eG*eA*eA*eG*eG*eA) [compound 327905]
% cells in cell cycle phase G1 [1]: 100% | % cells in cell cycle phase G2/M [1]: 109% | % cells in cell cycle phase S [1]: 77% | % cells in cell cycle phase aneuploid [1]: 102% | % cells in cell cycle phase subG1 [1]: 105% | % cells in cell cycle phase G1 [2]: 112% | % cells in cell cycle phase G2/M [2]: 104% | % cells in cell cycle phase S [2]: 80% | % cells in cell cycle phase aneuploid [2]: 103% | % cells in cell cycle phase subG1 [2]: 109%

TGAGCTACAGTGCTTCATCTCA [ISIS 327901] (chemistry not given here) [uniform 2′-MOE PS; targets mir-143]
decrease in in vivo expression levels of the mature mir-143 miRNA [3]: ~40%

342673 (antisense eA*eG*eA*e[5mC]*eT*eA*eG*e[5mC]*eG*eG*eT*eA*eT*e[5mC]*eT*eT*eT*eA*eT*e[5mC]*e[5mC]*e[5mC]) [compound 342673]
Relative luciferase activity ([4]; 3 nM): 104.5 | Relative luciferase activity ([4]; 10 nM): 82.6 | Relative luciferase activity ([4]; 30 nM): 85.7

327902 (antisense eG*eG*e[5mC]*eT*eG*eT*e[5mC]*eA*eA*eT*eT*e[5mC]*eA*eT*eA*eG*eG*eT*e[5mC]*eA*eG) [compound 327902]
% cells in cell cycle phase G1 [1]: 99% | % cells in cell cycle phase G2/M [1]: 108% | % cells in cell cycle phase S [1]: 88% | % cells in cell cycle phase aneuploid [1]: 82% | % cells in cell cycle phase subG1 [1]: 91% | % cells in cell cycle phase G1 [2]: 100% | % cells in cell cycle phase G2/M [2]: 102% | % cells in cell cycle phase S [2]: 98% | % cells in cell cycle phase aneuploid [2]: 97% | % cells in cell cycle phase subG1 [2]: 155%

327901 (antisense eT*eG*eA*eG*e[5mC]*eT*eA*e[5mC]*eA*eG*eT*eG*e[5mC]*eT*eT*e[5mC]*eA*eT*e[5mC]*eT*e[5mC]*eA) [compound 327901]
Relative luciferase activity ([4]; 3 nM): 83.6 | Relative luciferase activity ([4]; 10 nM): 96.6 | Relative luciferase activity ([4]; 30 nM): 88.2

327951 (antisense e[5mC]*eA*e[5mC]*eA*eA*eA*e[5mC]*e[5mC]*eA*eT*eT*eA*eT*eG*eT*eG*e[5mC]*eT*eG*e[5mC]*eT*eA) [compound 327951]
Relative luciferase activity ([4]; 3 nM): 151.0 | Relative luciferase activity ([4]; 10 nM): 207.6 | Relative luciferase activity ([4]; 30 nM): 137.1

TGAGCTACAGTGCTTCATCTCA [ISIS 340927] (chemistry not given here) [5-10-7 2′-MOE gapmer PS; targets mature mir-143]
decrease in in vivo expression levels of the mature mir-143 miRNA [3]: 23%
